For six compounds, solubility (mole fraction) results are on record in BigSolDB 2.1.

Molecules are shown by their SMILES.

By solubility (mole fraction) is commonly meant solubility expressed as the solute's share of all molecules. `COc1ccc(Nc2nc(CC(C)O)ns2)cc1` (stereo not given): the solubility (mole fraction) is, setting by setting: (in n-hexane, 293.2 K) 9.2e-06; (in n-hexane, 298.2 K) 1.51e-05; (in n-hexane, 303.2 K) 2.02e-05; (in n-hexane, 310.2 K) 3.51e-05; (in n-hexane, 315.2 K) 4.8e-05; (in n-octanol, 293.2 K) 0.0466. Further, the solubility (mole fraction) (in n-octanol, 298.2 K) amounted to 0.0627; the solubility (mole fraction) (in n-octanol, 303.2 K) worked out at 0.0694; the solubility (mole fraction) (in n-octanol, 310.2 K) was 0.101; the solubility (mole fraction) (in n-octanol, 315.2 K) is 0.121.

Regarding `Cc1ccc(Cl)cc1Nc1nc(CC(C)O)ns1` (stereo not given), the solubility (mole fraction) runs as follows: (in n-hexane, 293.2 K) 2.95e-05; (in n-hexane, 298.2 K) 3.79e-05; (in n-hexane, 303.2 K) 4.73e-05; (in n-hexane, 310.2 K) 5.55e-05; (in n-hexane, 315.2 K) 6.64e-05; (in n-octanol, 288.2 K) 0.0441. The solubility (mole fraction) stood at 0.0465 (in n-octanol, 290.7 K); 0.0488 (in n-octanol, 293.2 K); 0.0515 (in n-octanol, 295.7 K); 0.054 (in n-octanol, 298.2 K).

On to `CC(O)Cc1nsc(Nc2ccc(Cl)cc2)n1` (stereo not given), for which the solubility (mole fraction) is, setting by setting: (in n-hexane, 293.2 K) 3.5e-06; (in n-hexane, 298.2 K) 5.2e-06; (in n-hexane, 303.2 K) 6.9e-06; (in n-hexane, 310.2 K) 1.13e-05; (in n-hexane, 315.2 K) 1.73e-05; (in n-octanol, 293.2 K) 0.0187. Moreover, the solubility (mole fraction) reads like this: (in n-octanol, 298.2 K) 0.0218; (in n-octanol, 303.2 K) 0.0245; (in n-octanol, 310.2 K) 0.029; (in n-octanol, 315.2 K) 0.035.

Take `CC(O)Cc1nsc(Nc2cccc(Cl)c2)n1` (stereo not given): the solubility (mole fraction) amounted to 5.5e-06 (in n-hexane, 293.2 K); 9e-06 (in n-hexane, 298.2 K); 1.32e-05 (in n-hexane, 303.2 K); 2.4e-05 (in n-hexane, 310.2 K); 3.62e-05 (in n-hexane, 315.2 K); 0.0546 (in n-octanol, 293.2 K). Moreover, the solubility (mole fraction) by setting is: (in n-octanol, 298.2 K) 0.0633; (in n-octanol, 303.2 K) 0.0729; (in n-octanol, 310.2 K) 0.0885; (in n-octanol, 315.2 K) 0.101.

With `Cc1ccc(Nc2nc(CC(C)O)ns2)cc1Cl` (stereo not given), the solubility (mole fraction) runs as follows: (in n-hexane, 293.2 K) 3.2e-06; (in n-hexane, 298.2 K) 4.8e-06; (in n-hexane, 303.2 K) 6.2e-06; (in n-hexane, 310.2 K) 9.2e-06; (in n-hexane, 315.2 K) 1.28e-05; (in n-octanol, 293.2 K) 0.0121. In addition, the solubility (mole fraction) turned out to be 0.0134 (in n-octanol, 298.2 K); 0.0166 (in n-octanol, 303.2 K); 0.021 (in n-octanol, 310.2 K); 0.0251 (in n-octanol, 315.2 K).

Take `Cc1cccc(Nc2nc(CC(C)O)ns2)c1` (stereo not given): the solubility (mole fraction) came out at 2.49e-05 (in n-hexane, 293.2 K); 3.4e-05 (in n-hexane, 298.2 K); 4.59e-05 (in n-hexane, 303.2 K); 5.6e-05 (in n-hexane, 310.2 K); 7.05e-05 (in n-hexane, 315.2 K); 0.0266 (in n-octanol, 293.2 K). This compound returned a solubility (mole fraction) (in n-octanol, 298.2 K) of 0.0355; a solubility (mole fraction) (in n-octanol, 303.2 K) of 0.038; a solubility (mole fraction) (in n-octanol, 310.2 K) of 0.0501; a solubility (mole fraction) (in n-octanol, 315.2 K) of 0.0558.
